Assay results as given in patent publication US8754094B2, “Methods for heat shock protein dependent cancer treatment” (The Research Foundation of State University of New York, priority 2007, dated 2014).
pIC50: −log10 of the molar value. Entries after “also recorded” stand apart in the source; their conditions may differ. Read-outs that look alike come from different tables or passages of the source.

Tests used:
NCI-H929 = experiment: cells
Protocol: For cell survival assays, cells were plated in 96-well culture plates (BD Biosciences, San Jose, Calif.), 100,000 cells/well with 200 μl, of culture media. The effect of the drugs on cell survival was assessed, for example, by measuring 3-(4,5-dimethylthiazol-2-yl)-5-(3-carboxymethoxyphenyl)-2-(4-sulphophenyl)-2H-tetrazolium, inner salt (MTS) (Promega, Madison, Wis.) dye absorbance of viable cells by adding 40 μL of 5 mg/mL MTS to each well for the last 4 hours of drug exposure. Additional wells containing cells only (untreated control) or medium only (background medium control) were used as controls. Absorbance at 490 nm (A490) was measured using a spectrophotometer (Dynatech Laboratories, Chantilly, Va.). Viability was estimated according to the following formula: […]
Briefly, the cellular fraction affected (Fa) was calculated based on an MTS assay after exposing cells to the drugs alone or in combination at a given dose compared to untreated cells, using the formula: Fa=100−% Viable Cells. Fa values were entered into Calcusyn software (Biosoft, Ferguson, Mo. and Cambridge, United Kingdom) to obtain CI values. CI values <1.0 indicated a synergistic effect of the drugs used in combination. For Inhibitory Concentration, or IC, calculations, dose-effect curves for MAL3-101, MG-132, 17-AAG, and their combinations were used to interpolate the median inhibitory concentration that caused 30% (IC30), 50% (IC50), and 70% (IC70) reductions in the % viable cells compared to untreated cells.
Cells (1×10^5) were plated in 96-well microtiter plates (Costar, Cambridge, Mass.) in 100 μL, of growth medium and exposed for indicated periods to various concentrations of compounds or their combinations. Control cells were cultured in DMSO. All studies were performed in triplicate and repeated at least three times independently. Survival was measured by an MTS assay (Promega, Madison, Wis.) as per the manufacturer's directions. The absorbance (A450) ratio of treated to untreated cells, after the subtraction of background absorbance, was multiplied by 100 to obtain percent cell survival. Cell death was measured by trypan blue dye exclusion in identically plated cultures.
DMSO-treated cultures were compared to drug-treated cultures by Student's t tests or by Dunnett's post-hoc test following significant repeated-measures one-way analysis of variance. All tests were two-tailed, and statistical significance was set at P≦0.05. Isobologram analysis was performed to derive combination index (CI) values based upon the Chou-Talalay method using CalcuSyn software (Biosoft, Ferguson, Mo. and Cambridge, United Kingdom) as described in L. Catley, E. Weisberg, T. Kiziltepe, Y. T. Tai, T. Hideshima, P. Neri, P. Tassone, P. Atadja, D. Chauhan, N. C. Munshi, K. C. Anderson, Aggresome induction by proteasome inhibitor Bortezomib and {alpha}-tubulin hyperacetylation by tubulin deacetylase (TDAC) inhibitor LBH589 are synergistic in myeloma cells, Blood (2006), which is incorporated herein by reference.

BiP = experiment: Levels of ER lumenal chaperone BiP in NCI-H929; assay type: cell-based, human; conditions: NCI-H929, data not shown
XBP-1 mRNA splicing = experiment: RT-PCR analysis of XBP-1 mRNA splicing (UPR) in NCI-H929; assay type: cell-based, human
Protocol: (§1) Total RNA was prepared from NCI-H929 and HEK293 cells using TRIzol reagent (Invitrogen, Carlsbad, Calif.) following exposure to MAL3-101, MG-132, and 17-AAG alone and in combination at the indicated time points. Tunicamycin was used at varying concentrations.
(§2) Total RNAs were used for the first-strand synthesis with the Superscript reverse transcriptase (Invitrogen, Carlsbad, Calif.). PCR primers (5′-[…]-3′ [Seq. ID No. 1] and 5′-[…]-3′ [Seq. ID No. 2]) encompassing the missing sequences in XPB-1s were used for the PCR amplification with AmpliTaq Gold polymerase (Applied Biosystem, Foster City, Calif.) with a probe set spanning the spliced-out region. PCR products were separated by electrophoresis on a 3% agarose gel (Agarose-1000, Invitrogen) and visualized them by ethidium bromide staining to assess the degree of X-box binding protein-1 unspliced (XBP-1u, ˜280 bp) and spliced (XBP-1s, ˜265 bp) mRNA.
Unspliced (XBP-1u, 285 bp) and spliced (XBP-1s, 259 bp) XBP-1 mRNA levels of treated NCI-H929 were determined by PCR amplification of total RNA that was reverse transcribed by SuperScript Reverse Transcriptase (Invitrogen, Carlsbad, Calif.). PCR primers (5′-[…]-3′ [Seq. ID No. 1] and 5′-[…]-3′ [Seq. ID No. 2]), which flank the 26-nt intron of XBP1 mRNA, were used for PCR amplification with Ex Taq polymerase (Takara Bio, Shiga, Japan).

Hsp70 = Hsp70 modulation
XBP-1 splicing = experiment: RT-PCR analysis of XBP-1 splicing in HEK293; assay type: cell-based; conditions: HEK293, 6 hours
Protocol: as §1, §2

C=CCNC1=C2C[C@@H](C)C[C@H](OC)[C@H](O)[C@@H](C)/C=C(\C)[C@H](OC(N)=O)[C@@H](OC)/C=C\C=C(/C)C(=O)NC(=CC1=O)C2=O [17-AAG, 17-allylamino-17-demethoxygeldanamycin]
pIC50 (NCI-H929; read-out: IC50 (reduction of % viable cells), single agent, NCI-H929, 40 h exposure, MTS assay, agent alone): 6.40 | pIC50 (NCI-H929; read-out: IC50 of 17-AAG in combination with 5 μM MAL3-101, NCI-H929, MTS, plus 5 μM MAL3-101): 6.52 | pIC50 (NCI-H929; read-out: IC50 of 17-AAG in combination with 10 μM MAL3-101, NCI-H929, 40 h, MTS, plus 10 μM MAL3-101): 7.52 | levels of BiP (BiP): did not change | XBP-1 mRNA splicing at early time points (XBP-1 mRNA splicing; NCI-H929, early time points (4 h), concentrations that gave synergistic cytotoxicity): no XBP-1 mRNA splicing was observed

CC(C)(C)NC(=O)C(c1ccc(I)cc1)N(CCN1CCOCC1)C(=O)CCCNC(=O)c1ccccc1 (stereo not drawn) [MAL3-51]
response of percent viability (NCI-H929; NCI-H929, 10 or 20 μM, 40 h, MTS): no response | potency as Hsp70 modulator relative to MAL3-101 (Hsp70): less potent Hsp70 antagonist than MAL3-101; also recorded: substantially less potent Hsp70 modulator

tunicamycin [reference compound]
XBP-1 mRNA splicing, positive control (XBP-1 mRNA splicing; NCI-H929, 5 μg/ml, 4 h): induced XBP-1 mRNA splicing | XBP-1 splicing in HEK293 (XBP-1 splicing): Stronger XBP-1 splicing was observed
